Experimental data: the supplement of paper PMC13380429

Legend:
Conditions in all cases: 72 h
Calu-3 [1] = test: drug sensitivity score (DSS) for viability; higher = more toxic; extreme values may be limits of the assay
Caco-2 [2] = test: as above
Vero E6 [3] = test: as above
HepG2 [4] = test: as above
U2OS [5] = test: as above
Calu-3 [6] = test: relative viability EC50 (midpoint between 100% and the lowest measured viability); higher = less toxic
Caco-2 [7] = test: as above
Vero E6 [8] = test: as above
HepG2 [9] = test: as above
U2OS [10] = test: as above
Calu-3 [11] = test: cell viability relative to DMSO; higher = less toxic
Caco-2 [12] = test: as above
Vero E6 [13] = test: as above
HepG2 [14] = test: as above
U2OS [15] = test: as above

SMILES | drug sensitivity score (Calu-3 [1]) | drug sensitivity score (Caco-2 [2]) | drug sensitivity score (Vero E6 [3]) | drug sensitivity score (HepG2 [4]) | drug sensitivity score (U2OS [5]) | relative viability EC50 (Calu-3 [6]) | relative viability EC50 (Caco-2 [7]) | relative viability EC50 (Vero E6 [8]) | relative viability EC50 (HepG2 [9]) | relative viability EC50 (U2OS [10]) | cell viability (Calu-3 [11]; 1 nM) | cell viability (Calu-3 [11]; 10 nM) | cell viability (Calu-3 [11]; 100 nM) | cell viability (Calu-3 [11]; 1000 nM) | cell viability (Calu-3 [11]; 10000 nM) | cell viability (Caco-2 [12]; 1 nM) | cell viability (Caco-2 [12]; 10 nM) | cell viability (Caco-2 [12]; 100 nM) | cell viability (Caco-2 [12]; 1000 nM) | cell viability (Caco-2 [12]; 10000 nM) | cell viability (Vero E6 [13]; 1 nM) | cell viability (Vero E6 [13]; 10 nM) | cell viability (Vero E6 [13]; 100 nM) | cell viability (Vero E6 [13]; 1000 nM) | cell viability (Vero E6 [13]; 10000 nM) | cell viability (HepG2 [14]; 1 nM) | cell viability (HepG2 [14]; 10 nM) | cell viability (HepG2 [14]; 100 nM) | cell viability (HepG2 [14]; 1000 nM) | cell viability (HepG2 [14]; 10000 nM) | cell viability (U2OS [15]; 1 nM) | cell viability (U2OS [15]; 10 nM) | cell viability (U2OS [15]; 100 nM) | cell viability (U2OS [15]; 1000 nM) | cell viability (U2OS [15]; 10000 nM)
CC[C@H](C)[C@H]1O[C@]2(CC[C@@H]1C)C[C@@H]1C[C@@H](C/C=C(\C)[C@@H](O[C@H]3C[C@H](OC)[C@@H](O[C@H]4C[C@H](OC)[C@@H](O)[C@H](C)O4)[C@H](C)O3)[C@@H](C)/C=C/C=C3\CO[C@@H]4[C@H](O)C(C)=C[C@@H](C(=O)O1)[C@]34O)O2 [ivermectin] | 0 | 0 | 0 | 0.1 | 0 | > 10 µM | > 10 µM | > 10 µM | > 10 µM | > 10 µM | 101% | 107% | 88.1% | 97.1% | 93.6% | 94.7% | 90.3% | 94.2% | 95.8% | 108% | 107% | 103% | 106% | 103% | 87.8% | 96.2% | 98.5% | 108% | 107% | 85% | 104% | 95.1% | 99.4% | 96.1% | 93.9%
COC(=O)c1ccc(N2CCN(C)CC2)c(NC(=O)c2cccc(OC)c2)c1 [WDR5-0103] | 0 | 0 | 0 | 0 | 0 | > 10 µM | > 10 µM | > 10 µM | > 10 µM | > 10 µM | 98.9% | 93.4% | 99.5% | 97.4% | 97.8% | 88.8% | 97.5% | 91.7% | 99.9% | 89.8% | 94.6% | 98.2% | 94.2% | 102% | 103% | 102% | 114% | 85.5% | 112% | 102% | 98.5% | 94.8% | 96.8% | 95.5% | 101%
COc1ccc(C(CN(C)C)C2(O)CCCCC2)cc1 (stereo not given) [venlafaxine] | 0 | 0.2 | 0 | 0 | 0 | > 10 µM | > 10 µM | > 10 µM | > 10 µM | > 10 µM | 104% | 99.9% | 95.6% | 99.9% | 107% | 110% | 87.5% | 125% | 127% | 82% | 99.2% | 100% | 84.1% | 92.9% | 101% | 108% | 112% | 95.8% | 93.2% | 107% | 97.1% | 91.5% | 102% | 97.4% | 102%
CC[C@]1(O)C[C@H]2CN(CCc3c([nH]c4ccccc34)[C@@](C(=O)OC)(c3cc4c(cc3OC)N(C=O)[C@H]3[C@@](O)(C(=O)OC)[C@H](OC(C)=O)[C@]5(CC)C=CCN6CC[C@]43[C@@H]65)C2)C1 [Vincristine (sulfate)] | 19.1 | 23.3 | 14.4 | 24.3 | 24.7 | 0.0248 µM | 0.0094 µM | 0.196 µM | 0.0102 µM | 0.0302 µM | 88% | 78.2% | 54.8% | 39.6% | 34.6% | 91.9% | 66% | 42.5% | 41.4% | 34.8% | 98.9% | 102% | 82.9% | 34.2% | 29.8% | 109% | 68.4% | 39.2% | 35.4% | 36.9% | 97.1% | 80.8% | 35.4% | 19.5% | 17.6%
NCC(=O)N[C@@H](CCC(N)=O)C(=O)O [gly-gln] | 0 | 0 | 0 | 0 | 0 | > 10 µM | > 10 µM | > 10 µM | > 10 µM | > 10 µM | 95.9% | 91.9% | 92.7% | 99.2% | 109% | 95.5% | 92.6% | 92.9% | 102% | 97.7% | 91.8% | 101% | 91.7% | 94.2% | 107% | 86.6% | 100% | 91.7% | 106% | 104% | 99.2% | 95.4% | 96.7% | 98.3% | 97.1%
CCCN(CCC)[C@@H]1CCc2c(OC)cccc2[C@@H]1C [UH-232-(+)] | 0 | 0 | 0 | 0 | 0 | > 10 µM | > 10 µM | > 10 µM | > 10 µM | > 10 µM | 102% | 104% | 103% | 102% | 95% | 95.6% | 100% | 97.1% | 93.6% | 92.7% | 95.9% | 102% | 96.5% | 101% | 100% | 97.7% | 103% | 87.2% | 102% | 95.8% | 108% | 106% | 104% | 101% | 99.4%
C=CC(N)CCC(=O)O (stereo not given) [vigabatrin] | 0 | 0 | 0 | 0 | 0 | > 10 µM | > 10 µM | > 10 µM | > 10 µM | > 10 µM | 103% | 105% | 99% | 102% | 106% | 93.7% | 96.1% | 101% | 98.1% | 93.2% | 96.5% | 93.8% | 101% | 88.4% | 97.1% | 100% | 89.6% | 113% | 96.1% | 104% | 95.9% | 103% | 96.8% | 99.4% | 91.7%
